Experimental data: ChEMBL document CHEMBL5036301, “Heteroaryl ether analogues of an antileishmanial 7-substituted 2-nitroimidazooxazine lead afford attenuated hERG risk: In vitro and in vivo appraisal” (Eur J Med Chem, 2021)
≈ marks a conversion by molar mass, not a printed value.

Legend:
Leishmania donovani [1] = assay: Antileishmanial activity against Leishmania donovani amastigotes infected in mouse J774A.1 cells incubated for 72 hrs by luciferase assay; format: functional, organism-based; settings: J774.A1, 72 h
Trypanosoma cruzi = assay: Antitrypanosomal activity against Trypanosoma cruzi Tulahuen CL2 infected in human MRC-5 cells assessed as parasite growth; format: functional, organism-based; settings: Tulahuen CL2, MRC5
[2] = system: Mycobacterium tuberculosis; assay: Antitubercular activity against Mycobacterium tuberculosis H37Rv assessed as reduction in microbial growth under anaerobic condition by luminescence analysis; format: functional
[3] = system: Mycobacterium tuberculosis; assay: Antitubercular activity against Mycobacterium tuberculosis H37Rv assessed as reduction in microbial growth under aerobic condition by luminescence analysis; format: functional
[4] = Selectivity index, ratio IC50 for cytotoxicity against human MRC5 cells to IC50 for antileishmanial activity against Leishmania infantum MHOM/MA(BE)/67 amastigotes infected in macrophages
MRC5 = assay: Cytotoxicity against human MRC5 cells assessed as cell viability after 72 hrs by fluorimetric analysis; format: ADME, cell-based; settings: MRC5, 72 h
Leishmania infantum = assay: Antileishmanial activity against Leishmania infantum MHOM/MA(BE)/67 amastigotes infected in macrophages assessed as reduction in parasite burden by giemsa staining based microscopic analysis; format: functional, organism-based
[5] = Kinetic solubility of compound in water at pH7 by HPLC analysis; settings: pH 7
hERG (KCNH2) = hERG (KCNH2) (Homo sapiens, UniProt Q12809); assay: Inhibition of human ERG expressed in HEK293 cells at 10 uM relative to control; format: cell-based; settings: HEK293 cells expressing human ERG
Chain of hERG (KCNH2) (Q12809 whole entry): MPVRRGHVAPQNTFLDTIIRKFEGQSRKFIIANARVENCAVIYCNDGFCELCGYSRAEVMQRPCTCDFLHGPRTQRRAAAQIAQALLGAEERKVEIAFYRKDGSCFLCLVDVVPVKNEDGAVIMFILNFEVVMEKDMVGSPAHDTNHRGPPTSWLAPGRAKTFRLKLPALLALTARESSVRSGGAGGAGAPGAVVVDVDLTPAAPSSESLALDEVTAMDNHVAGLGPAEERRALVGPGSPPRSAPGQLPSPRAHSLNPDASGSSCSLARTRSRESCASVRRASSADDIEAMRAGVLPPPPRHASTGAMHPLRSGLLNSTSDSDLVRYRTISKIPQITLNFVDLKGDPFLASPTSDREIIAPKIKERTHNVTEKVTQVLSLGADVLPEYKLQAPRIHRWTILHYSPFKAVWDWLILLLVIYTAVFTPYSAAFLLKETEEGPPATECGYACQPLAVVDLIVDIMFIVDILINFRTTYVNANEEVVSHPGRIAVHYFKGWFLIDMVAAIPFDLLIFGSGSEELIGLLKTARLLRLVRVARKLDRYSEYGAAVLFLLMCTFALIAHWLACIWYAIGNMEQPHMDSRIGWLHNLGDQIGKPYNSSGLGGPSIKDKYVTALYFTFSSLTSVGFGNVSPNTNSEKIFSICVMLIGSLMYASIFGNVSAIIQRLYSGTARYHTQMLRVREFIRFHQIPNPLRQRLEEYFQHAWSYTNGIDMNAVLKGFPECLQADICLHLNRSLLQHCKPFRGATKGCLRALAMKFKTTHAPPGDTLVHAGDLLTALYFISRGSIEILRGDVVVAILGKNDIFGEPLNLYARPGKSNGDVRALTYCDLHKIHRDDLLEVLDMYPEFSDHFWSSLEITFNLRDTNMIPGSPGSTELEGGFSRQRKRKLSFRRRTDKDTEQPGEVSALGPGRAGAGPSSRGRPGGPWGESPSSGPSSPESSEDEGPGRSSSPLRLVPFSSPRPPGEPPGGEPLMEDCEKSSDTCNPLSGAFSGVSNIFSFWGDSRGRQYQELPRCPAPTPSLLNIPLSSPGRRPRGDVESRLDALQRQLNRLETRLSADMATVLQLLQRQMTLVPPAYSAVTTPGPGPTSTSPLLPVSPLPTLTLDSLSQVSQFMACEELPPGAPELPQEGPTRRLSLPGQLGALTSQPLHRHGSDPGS

Leishmania donovani [6] = assay: Antileishmanial activity against Leishmania donovani amastigotes infected in BALB/C mouse assessed as reduction in parasite burden in liver tissue at 50 mg/kg, po administered once per day for 5 days relative to control; format: functional; settings: 120 h, time 5 day
[7] = Stability of compound in hamster liver microsomes assessed as percentage of parent compound remaining at 1 uM measured after 1 hr; settings: chinese hamster
[8] = Stability of compound in human liver microsomes assessed as percentage of parent compound remaining at 1 uM measured after 1 hr
[9] = Stability of compound in CD-1 mouse liver microsomes assessed as percentage of parent compound remaining at 1 uM measured after 1 hr
[10] = AUClast in mouse at 1 mg/kg, iv measured upto 24 hrs LC-MS/MS analysis; settings: in vivo
[11] = AUClast in mouse at 25 mg/kg, po measured upto 24 hrs LC-MS/MS analysis; settings: in vivo
[12] = Initial plasma concentration in mouse at 1 mg/kg, iv measured upto 24 hrs LC-MS/MS analysis
in vivo [13] = settings: mouse, po, 25 mg/kg
in vivo [14] = settings: mouse, po, 25 mg/kg; remark: listed apart in the source
[15] = Clearance in mouse at 1 mg/kg, iv measured upto 24 hrs LC-MS/MS analysis; settings: in vivo
in vivo [16] = settings: mouse, po, 25 mg/kg; remark: listed apart in the source
[17] = Half life in mouse at 1 mg/kg, iv measured upto 24 hrs LC-MS/MS analysis; settings: in vivo
[18] = Volume of distribution at steady state in mouse at 1 mg/kg, iv measured upto 24 hrs LC-MS/MS analysis; settings: in vivo

Compound	IC50 (Leishmania donovani [1]) [nM]	IC50 (Trypanosoma cruzi) [nM]	MIC [2] [µM]	MIC [3] [µM]	selectivity ratio [4]	IC50 (MRC5) [nM]	IC50 (Leishmania infantum) [nM]	solubility kinetic [5] [µg/mL]	inhibition in vivo at 50 mg/kg (Leishmania donovani [6]) [%]	also measured
O=[N+]([O-])c1cn2c(n1)OC(COc1ccc(OC(F)(F)F)cc1)CC2 (stereo unspecified)	40	61	4.7	5.2						
CC1(COc2ccc(Cl)cc2)CCn2cc([N+](=O)[O-])nc2O1 (stereo unspecified)	50	180	7	0.86	> 492	> 64000	130			
CC1(COc2ccc(F)cc2)CCn2cc([N+](=O)[O-])nc2O1 (stereo unspecified)	290	450	5	1.3	> 142	> 64000	450			
O=[N+]([O-])c1cn2c(n1)OC(COc1ccc(Cl)cn1)CC2 (stereo unspecified)	100	940				> 64000	> 64000	18 (≈ 57.9 µM)		inhibition at 10 µM (hERG (KCNH2)): 17%
CC1(COc2ncc(C(F)(F)F)cc2Cl)CCn2cc([N+](=O)[O-])nc2O1 (stereo unspecified)		290			> 246	> 64000	260	11 (≈ 28 µM)	0	remaining at 1 h, 1 µM [7]: 0%; remaining at 1 h, 1 µM [8]: 23%; remaining at 1 h, 1 µM [9]: 14%
CC1(COc2ccc(C(F)(F)F)nn2)CCn2cc([N+](=O)[O-])nc2O1 (stereo unspecified)		3800				> 64000	> 64000	10 (≈ 27.8 µM)	0	remaining at 1 h, 1 µM [7]: 58%; remaining at 1 h, 1 µM [8]: 90%; remaining at 1 h, 1 µM [9]: 89%
CC1(COc2ncc(F)cn2)CCn2cc([N+](=O)[O-])nc2O1 (stereo unspecified)	670	14000				> 64000	> 64000			
O=[N+]([O-])c1cn2c(n1)OC(COc1cccc(C(F)(F)F)n1)CC2 (stereo unspecified)		530				> 64000	> 64000			
CC1(COc2ccc(Cl)cn2)CCn2cc([N+](=O)[O-])nc2O1 (stereo unspecified)	150	630	8.7	2		> 64000	380	23 (≈ 70.8 µM)	14	AUC(0-t) at 24 h [10]: 2010 ng·h/mL; AUC(0-t) at 24 h [11]: 57800 ng·h/mL; C0 at 24 h [12]: 2600 ng/mL; Cmax at 24 h (in vivo [13]): 11000 ng/mL; bioavailability at 24 h (in vivo [14]): 100%; clearance at 24 h [15]: 8.3 mL/min/kg; Tmax at 24 h (in vivo [16]): 1 h; half-life at 24 h [17]: 0.65 h; Vd at 24 h [18]: 0.5 L/kg
CC1(COc2ccc(C(F)(F)F)nc2)CCn2cc([N+](=O)[O-])nc2O1 (stereo unspecified)	90	780	33	66		> 64000	1900	7.3 (≈ 20.4 µM)	42	AUC(0-t) at 24 h [10]: 4000 ng·h/mL; AUC(0-t) at 24 h [11]: 41800 ng·h/mL; C0 at 24 h [12]: 1600 ng/mL; Cmax at 24 h (in vivo [13]): 11000 ng/mL; bioavailability at 24 h (in vivo [14]): 84%; inhibition at 10 µM (hERG (KCNH2)): 17%; clearance at 24 h [15]: 4.1 mL/min/kg; Tmax at 24 h (in vivo [16]): 1 h; half-life at 24 h [17]: 1.5 h; Vd at 24 h [18]: 0.46 L/kg
C[C@]1(COc2ccc(C(F)(F)F)nc2)CCn2cc([N+](=O)[O-])nc2O1	440	900				> 64000	1300	12 (≈ 33.5 µM)	72	AUC(0-t) at 24 h [10]: 2520 ng·h/mL; AUC(0-t) at 24 h [11]: 37200 ng·h/mL; C0 at 24 h [12]: 1100 ng/mL; Cmax at 24 h (in vivo [13]): 7300 ng/mL; bioavailability at 24 h (in vivo [14]): 59%; clearance at 24 h [15]: 6.6 mL/min/kg; Tmax at 24 h (in vivo [16]): 2 h; half-life at 24 h [17]: 1.3 h; Vd at 24 h [18]: 0.91 L/kg
O=[N+]([O-])c1cn2c(n1)OC(COc1ncc(C(F)(F)F)cn1)CC2 (stereo unspecified)		3300				> 64000	> 64000			
CC1(COc2ccc(F)nc2)CCn2cc([N+](=O)[O-])nc2O1 (stereo unspecified)	600	4300			> 9	> 64000	7100			
